Tested on: patients with advanced solid tumours
Experiment: Solid tumour dose-escalation study: safety and tolerability (AEs, DLTs)
From the text: Conducted at two UK centres and one in Japan. Dose escalation followed a rolling six design.[14] Patients received a single dose on Day 1 during Cycle 0, followed by a 3-day washout period, after which multiple dosing was initiated. Cycle 1 was a 21-day period from the first dose of multiple dosing.
The CTCAE (version 4.0) was utilised to grade all AE events.
AEs were summarised by Medical Dictionary for Regulatory Activities (MedDRA) system organ class, MedDRA preferred term and CTCAE grade. Summary statistics of mean, median, standard deviation, minimum, maximum and number of observations were used.

N[C@@H]1CCCN(c2c(/C=C3\SC(=O)NC3=O)cccc2-c2ccccc2)C1 [AZD1208]
White blood cell count decreased (all-grade AE) (540 mg, n = 7): 2 (28.6) n (%)
Patients requiring dose interruptions because of AEs (700 mg): 3 n
Patients with CTCAE grade ≥3 AEs causally related to AZD1208 (700 mg (nausea, fatigue)): 1 n
Anaemia (all-grade AE) (700 mg, n = 6): 3 (50.0) n (%)
Constipation (all-grade AE) (700 mg, n = 6): 2 (33.3) n (%)
Decreased appetite (all-grade AE) (700 mg, n = 6): 2 (33.3) n (%)
Diarrhoea (all-grade AE) (700 mg, n = 6): 5 (83.3) n (%)
Dry skin (all-grade AE) (700 mg, n = 6): 1 (16.7) n (%)
Dyspnoea (all-grade AE) (700 mg, n = 6): 0 (0.0) n (%)
Fatigue (all-grade AE) (700 mg, n = 6): 4 (66.7) n (%)
GGT increased (all-grade AE) (700 mg, n = 6): 0 (0.0) n (%)
Hyperglycaemia (all-grade AE) (700 mg, n = 6): 0 (0.0) n (%)
Hypoalbuminaemia (all-grade AE) (700 mg, n = 6): 3 (50.0) n (%)
Hypokalaemia (all-grade AE) (700 mg, n = 6): 1 (16.7) n (%)
Hyponatraemia (all-grade AE) (700 mg, n = 6): 1 (16.7) n (%)
Insomnia (all-grade AE) (700 mg, n = 6): 0 (0.0) n (%)
Musculoskeletal chest pain (all-grade AE) (700 mg, n = 6): 1 (16.7) n (%)
Nausea (all-grade AE) (700 mg, n = 6): 5 (83.3) n (%)
Patients with any AE (all-grade AE) (700 mg, n = 6): 6 (100.0) n (%)
Platelet count decreased (all-grade AE) (700 mg, n = 6): 1 (16.7) n (%)
Pyrexia (all-grade AE) (700 mg, n = 6): 2 (33.3) n (%)
Thrombocytopenia (all-grade AE) (700 mg, n = 6): 1 (16.7) n (%)
Vomiting (all-grade AE) (700 mg, n = 6): 4 (66.7) n (%)
White blood cell count decreased (all-grade AE) (700 mg, n = 6): 1 (16.7) n (%)
Patients requiring dose interruptions because of AEs (800 mg): 2 n
Patients with CTCAE grade ≥3 AEs causally related to AZD1208 (800 mg (fatigue, hyperglycaemia)): 3 n
Tolerability (800 mg QD): not tolerated
Abdominal pain (all-grade AE) (800 mg, n = 6): 0 (0.0) n (%)
Anaemia (all-grade AE) (800 mg, n = 6): 2 (33.3) n (%)
Constipation (all-grade AE) (800 mg, n = 6): 0 (0.0) n (%)
DLT detail, action taken (800 mg, n = 6): Fatigue, drug interrupted; fatigue, drug interrupted
Decreased appetite (all-grade AE) (800 mg, n = 6): 3 (50.0) n (%)
Diarrhoea (all-grade AE) (800 mg, n = 6): 6 (100.0) n (%)
Dry skin (all-grade AE) (800 mg, n = 6): 0 (0.0) n (%)
Dyspnoea (all-grade AE) (800 mg, n = 6): 0 (0.0) n (%)
Fatigue (all-grade AE) (800 mg, n = 6): 5 (83.3) n (%)
GGT increased (all-grade AE) (800 mg, n = 6): 1 (16.7) n (%)
Hyperglycaemia (all-grade AE) (800 mg, n = 6): 2 (33.3) n (%)
Hypoalbuminaemia (all-grade AE) (800 mg, n = 6): 0 (0.0) n (%)
Hypokalaemia (all-grade AE) (800 mg, n = 6): 1 (16.7) n (%)
Hyponatraemia (all-grade AE) (800 mg, n = 6): 0 (0.0) n (%)
Insomnia (all-grade AE) (800 mg, n = 6): 1 (16.7) n (%)
Musculoskeletal chest pain (all-grade AE) (800 mg, n = 6): 0 (0.0) n (%)
Nausea (all-grade AE) (800 mg, n = 6): 4 (66.7) n (%)
Patients with any AE (all-grade AE) (800 mg, n = 6): 6 (100.0) n (%)
Platelet count decreased (all-grade AE) (800 mg, n = 6): 1 (16.7) n (%)
Pyrexia (all-grade AE) (800 mg, n = 6): 0 (0.0) n (%)
Thrombocytopenia (all-grade AE) (800 mg, n = 6): 1 (16.7) n (%)
Vomiting (all-grade AE) (800 mg, n = 6): 3 (50.0) n (%)
White blood cell count decreased (all-grade AE) (800 mg, n = 6): 0 (0.0) n (%)
Abdominal pain (all-grade AE) (Total N = 35): 8 (22.9) n (%)
Anaemia (all-grade AE) (Total N = 35): 18 (51.4) n (%)
Constipation (all-grade AE) (Total N = 35): 5 (14.3) n (%)
Decreased appetite (all-grade AE) (Total N = 35): 15 (42.9) n (%)
Diarrhoea (all-grade AE) (Total N = 35): 29 (82.9) n (%)
Dry skin (all-grade AE) (Total N = 35): 7 (20.0) n (%)
Dyspnoea (all-grade AE) (Total N = 35): 4 (11.4) n (%)
Fatigue (all-grade AE) (Total N = 35): 17 (48.6) n (%)
GGT increased (all-grade AE) (Total N = 35): 6 (17.1) n (%)
Hyperglycaemia (all-grade AE) (Total N = 35): 8 (22.9) n (%)
Hypoalbuminaemia (all-grade AE) (Total N = 35): 9 (25.7) n (%)
Hypokalaemia (all-grade AE) (Total N = 35): 4 (11.4) n (%)
Hyponatraemia (all-grade AE) (Total N = 35): 5 (14.3) n (%)
Insomnia (all-grade AE) (Total N = 35): 4 (11.4) n (%)
Musculoskeletal chest pain (all-grade AE) (Total N = 35): 4 (11.4) n (%)
Nausea (all-grade AE) (Total N = 35): 26 (74.3) n (%)
Patients with any AE (all-grade AE) (Total N = 35): 35 (100.0) n (%)
Platelet count decreased (all-grade AE) (Total N = 35): 9 (25.7) n (%)
Pyrexia (all-grade AE) (Total N = 35): 6 (17.1) n (%)
Thrombocytopenia (all-grade AE) (Total N = 35): 5 (14.3) n (%)
Vomiting (all-grade AE) (Total N = 35): 19 (54.3) n (%)
White blood cell count decreased (all-grade AE) (Total N = 35): 9 (25.7) n (%)
Patients with DLTs (all doses): Four
AEs of grade ≥3, patients (all doses, 35 patients): 45.7%
CTCAE grade ≥3 AEs causally related to AZD1208, patients (all doses, 35 patients): 28.6%
CTCAE grade ≥3 GGT increase, patients (all doses, 35 patients): 8.6%
CTCAE grade ≥3 abdominal pain, patients (all doses, 35 patients): 5.7%
CTCAE grade ≥3 anaemia, patients (all doses, 35 patients): 5.7%
CTCAE grade ≥3 fatigue, patients (all doses, 35 patients): 11.4%
Diarrhoea causally related to AZD1208, patients (all doses, 35 patients): 68.6%
Diarrhoea, patients (all doses, 35 patients): 82.9%
Discontinued the study due to an AE, patients (all doses, 35 patients): 11.4%
Dose interruptions because of AEs, patients (all doses, 35 patients): 45.7%
Gastrointestinal disorders AEs, patients (all doses, 35 patients): 97.1%
Nausea causally related to AZD1208, patients (all doses, 35 patients): 65.7%
Nausea, patients (all doses, 35 patients): 74.3%
Patients with ≥1 SAE (all doses, 35 patients): 22.9%
SAE dyspnoea, patients (all doses, 35 patients): 5.7%
SAE vomiting, patients (all doses, 35 patients): 5.7%
Vomiting, patients (all doses, 35 patients): 54.3%
Treatment-related changes in haematology, clinical chemistry, vital signs, ECG or physical findings (any patient): No clinically significant treatment-related changes
Patients who died as a result of an AE (not considered AZD1208-related by the investigator): 2.9%
Patients reporting treatment-related SAEs (one patient, three SAEs (vomiting, fatigue, general physical health deterioration)): 2.9%
Doses tolerated as monotherapy (solid tumour study): up to 700 mg QD
Maximum tolerated dose (MTD) (solid tumour study): could not be determined

— publication PMC5988656, “Phase I studies of AZD1208, a proviral integration Moloney virus kinase inhibitor in solid and haematological cancers” (British Journal of Cancer, 2018)
